# In ChEMBL document CHEMBL1671662, “In vitro activities of telavancin and six comparator agents against anaerobic bacterial isolates” (2009):
# Experiments:
# Format in all cases: functional
# Clostridium subterminale = assay: Antibacterial activity against Clostridium subterminale by CLSI M11-A6 agar dilution method in presence of beta-lactamase inhibitor Sulbactam
# Ruminococcus obeum = assay: Antibacterial activity against Ruminococcus obeum by CLSI M11-A6 agar dilution method in presence of beta-lactamase inhibitor Sulbactam; conditions: Blautia obeum
# Streptococcus anginosus = assay: Antibacterial activity against Streptococcus anginosus by CLSI M11-A6 agar dilution method in presence of beta-lactamase inhibitor Sulbactam
compound,measurement,setting,value
CC1(C)S[C@@H]2[C@H](NC(=O)[C@H](N)c3ccccc3)C(=O)N2[C@H]1C(=O)O [AMPICILLIN],MIC50,Clostridium subterminale,≤ 0.12 µg/mL
same,MIC90,Clostridium subterminale,0.25 µg/mL
same,MIC50,Ruminococcus obeum,≤ 0.12 µg/mL
same,MIC90,Ruminococcus obeum,0.25 µg/mL
same,MIC50,Streptococcus anginosus,0.5 µg/mL
same,MIC90,Streptococcus anginosus,0.5 µg/mL
